Reference: patent US4987140A, “Pyridines” (Roussel Uclaf, priority 1987, dated 1991)

Tested on: chronic-arthritis with adjuvant (increase in volume of the rear paws)
Assay: Anti-inflammatory activity: chronic-arthritis with adjuvant (preventative treatment)
Type: in vivo, rat
Details: male rats aged 42 to 50 days, intra-plantar Freund type adjuvant, product orally from day 0 up to the day before killing (day 17), 24480 min
Description: Anti-inflammatory activity: chronic-arthritis with adjuvant (preventative treatment)
In the rat, the injection of Freund type adjuvant in a rear paw causes the rapid appearance of a primary inflammatory lesion in this paw and then, after a latency period of 13 to 15 days, the start up of a secondary arthritic affection, particularly in the other rear paw. The test was carried out on male rats aged 42 to 50 days which received an intra-plantar injection of 0.1 ml of "Freund" type adjuvant (suspension in vaseline oil of 6 mg per ml of killed mycobacterium butyricum). The animals received the product orally from day 0 (day of injection of adjuvant) up to the day before they were killed, which occured on day 17. Control arthritic animals and control normal animals received only the vehicle. The criteria of appreciation of the activity of the substances studied was the increases in volume of the injected rear paws (primary and secondary inflammation) and the non-injected ones (secondary inflammation)by comparison with the average volume of the corresponding paws of normal controls. The DA50 was determined, that is to say, the dose which reduced by 50% the increase in volume of the rear paws of the treated animals in comparison with the control animals.

For `Cc1c(-c2ccccc2)nc(C(F)(F)F)c(C(=O)Nc2nccs2)c1O` [Example 1, 4-hydroxy-5-methyl-6-phenyl-N-(2-thiazolyl)-2-trifluoromethyl-3-pyridine carboxamide], the “DA50 (dose which reduced by 50% the increase in volume of the rear paws of the treated animals in comparison with the control animals)” value was 0.3 mg/k.
With `O=C(Nc1nccs1)c1c(C(F)(F)F)nc(-c2ccccc2)c(-c2ccccc2)c1O` [Example 3, 5,6-diphenyl-4-hydroxy-N-(2-thiazolyl)-2-trifluoromethyl-3-pyridine carboxamide] the “DA50 (dose which reduced by 50% the increase in volume of the rear paws of the treated animals in comparison with the control animals)” value was 15 mg/k.
